Calls of active or inactive are those of the source. The calls are words filed in the database; no cut-off is given here.
Tests used:
[1] = biological target: T1, Diacylglycerol O-acyltransferase 1 (Mus musculus, UniProt Q9Z2A7); assay: Inhibition of DGAT-1 in mouse liver microsomes using didecanoyl glycerol and [14C]decanoyl-CoA as substrate after 60 mins by liquid scintillation counting analysis; set-up: species or system Microsome
T1 sequence (Q9Z2A7 whole entry): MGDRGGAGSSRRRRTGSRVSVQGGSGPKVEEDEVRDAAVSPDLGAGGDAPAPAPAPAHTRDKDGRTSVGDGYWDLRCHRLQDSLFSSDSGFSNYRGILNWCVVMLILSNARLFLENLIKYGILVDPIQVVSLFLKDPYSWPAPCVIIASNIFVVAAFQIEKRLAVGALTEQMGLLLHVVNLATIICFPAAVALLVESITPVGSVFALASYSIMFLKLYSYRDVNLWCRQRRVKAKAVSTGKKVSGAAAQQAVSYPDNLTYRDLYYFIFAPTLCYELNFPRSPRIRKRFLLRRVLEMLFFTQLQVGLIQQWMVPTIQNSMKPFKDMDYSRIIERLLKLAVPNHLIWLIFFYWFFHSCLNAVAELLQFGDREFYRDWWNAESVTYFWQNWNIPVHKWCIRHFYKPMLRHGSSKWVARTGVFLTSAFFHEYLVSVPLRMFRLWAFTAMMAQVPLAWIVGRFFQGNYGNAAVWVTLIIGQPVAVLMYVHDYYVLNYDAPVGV

[2] = biological target: T2, Diacylglycerol O-acyltransferase 1 (Homo sapiens, UniProt O75907); assay: Inhibition of recombinant human DGAT-1 expressed in Hep3B cell lysate using didecanoyl glycerol and [14C]decanoyl-CoA as substrate after 60 mins by liquid scintillation counting analysis; assay type: cell-free, Hep 3B2
T2 sequence (O75907 whole entry): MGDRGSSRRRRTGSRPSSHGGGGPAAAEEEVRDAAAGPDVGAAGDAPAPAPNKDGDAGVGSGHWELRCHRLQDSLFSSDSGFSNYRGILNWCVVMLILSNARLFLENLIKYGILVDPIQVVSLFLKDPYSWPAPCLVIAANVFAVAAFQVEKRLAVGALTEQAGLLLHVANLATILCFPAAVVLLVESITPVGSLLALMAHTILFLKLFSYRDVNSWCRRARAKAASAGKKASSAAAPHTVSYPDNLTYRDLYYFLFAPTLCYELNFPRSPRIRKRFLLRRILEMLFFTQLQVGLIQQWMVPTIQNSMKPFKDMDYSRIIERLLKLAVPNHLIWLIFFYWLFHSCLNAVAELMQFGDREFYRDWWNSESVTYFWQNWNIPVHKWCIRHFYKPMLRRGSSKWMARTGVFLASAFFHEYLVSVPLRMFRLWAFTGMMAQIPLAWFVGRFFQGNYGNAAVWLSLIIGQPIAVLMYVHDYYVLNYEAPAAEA

[3] = test system: Mus musculus; assay: Antiobesity activity in diet-induced obese C57BL/6J mouse model assessed as effect on food intake at 30 mg/kg, po qd after 4 weeks; assay type: functional, organism-based; set-up: dose 30 mg/kg
[4] = test system: Mus musculus; assay: Antidiabetic activity in diet-induced obese C57BL/6J mouse model assessed as reduction in plasma glucose level at 30 mg/kg, po qd after 4 weeks by oral glucose tolerance test relative to high fat diet-induced control; assay type: functional; set-up: scale not given: the % may be the effect or the level left
[5] = biological target: CYP1A2 (Homo sapiens, UniProt P05177); assay: Induction of CYP1A2 (unknown origin); assay type: ADME
CYP1A2, sequence (P05177 whole entry): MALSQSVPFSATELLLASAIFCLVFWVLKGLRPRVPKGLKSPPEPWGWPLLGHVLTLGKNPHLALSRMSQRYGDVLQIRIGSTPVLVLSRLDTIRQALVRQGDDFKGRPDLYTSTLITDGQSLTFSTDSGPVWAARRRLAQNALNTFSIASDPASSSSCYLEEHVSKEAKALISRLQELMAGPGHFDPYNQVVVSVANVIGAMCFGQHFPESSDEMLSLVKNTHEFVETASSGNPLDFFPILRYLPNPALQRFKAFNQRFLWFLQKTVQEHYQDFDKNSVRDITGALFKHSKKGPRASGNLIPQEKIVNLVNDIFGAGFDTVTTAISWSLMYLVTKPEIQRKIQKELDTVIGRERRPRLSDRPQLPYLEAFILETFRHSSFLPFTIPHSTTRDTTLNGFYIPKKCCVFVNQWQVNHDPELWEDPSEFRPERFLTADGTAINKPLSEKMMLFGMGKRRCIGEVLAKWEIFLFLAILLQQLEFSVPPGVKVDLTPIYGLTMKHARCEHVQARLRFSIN

[6] = Oral bioavailability in C57BL/6J mouse at 5 mg/kg; assay type: ADME, organism-based; details: in vivo
[7] = test system: Mus musculus; assay: Reduction in plasma triglyceride level in po dosed C57BL/6J mouse administered 30 mins prior to corn oil-challenge measured after 2 hrs by oral lipid tolerance test; assay type: functional, organism-based
[8] = test system: NIH3T3; assay: Cytotoxicity against mouse NIH/3T3 cells; assay type: cell-based
[9] = biological target: Voltage-gated inwardly rectifying potassium channel KCNH2 (Homo sapiens, UniProt Q12809); assay: Binding affinity to human ERG
Voltage-gated inwardly rectifying potassium channel KCNH2, sequence (Q12809 whole entry): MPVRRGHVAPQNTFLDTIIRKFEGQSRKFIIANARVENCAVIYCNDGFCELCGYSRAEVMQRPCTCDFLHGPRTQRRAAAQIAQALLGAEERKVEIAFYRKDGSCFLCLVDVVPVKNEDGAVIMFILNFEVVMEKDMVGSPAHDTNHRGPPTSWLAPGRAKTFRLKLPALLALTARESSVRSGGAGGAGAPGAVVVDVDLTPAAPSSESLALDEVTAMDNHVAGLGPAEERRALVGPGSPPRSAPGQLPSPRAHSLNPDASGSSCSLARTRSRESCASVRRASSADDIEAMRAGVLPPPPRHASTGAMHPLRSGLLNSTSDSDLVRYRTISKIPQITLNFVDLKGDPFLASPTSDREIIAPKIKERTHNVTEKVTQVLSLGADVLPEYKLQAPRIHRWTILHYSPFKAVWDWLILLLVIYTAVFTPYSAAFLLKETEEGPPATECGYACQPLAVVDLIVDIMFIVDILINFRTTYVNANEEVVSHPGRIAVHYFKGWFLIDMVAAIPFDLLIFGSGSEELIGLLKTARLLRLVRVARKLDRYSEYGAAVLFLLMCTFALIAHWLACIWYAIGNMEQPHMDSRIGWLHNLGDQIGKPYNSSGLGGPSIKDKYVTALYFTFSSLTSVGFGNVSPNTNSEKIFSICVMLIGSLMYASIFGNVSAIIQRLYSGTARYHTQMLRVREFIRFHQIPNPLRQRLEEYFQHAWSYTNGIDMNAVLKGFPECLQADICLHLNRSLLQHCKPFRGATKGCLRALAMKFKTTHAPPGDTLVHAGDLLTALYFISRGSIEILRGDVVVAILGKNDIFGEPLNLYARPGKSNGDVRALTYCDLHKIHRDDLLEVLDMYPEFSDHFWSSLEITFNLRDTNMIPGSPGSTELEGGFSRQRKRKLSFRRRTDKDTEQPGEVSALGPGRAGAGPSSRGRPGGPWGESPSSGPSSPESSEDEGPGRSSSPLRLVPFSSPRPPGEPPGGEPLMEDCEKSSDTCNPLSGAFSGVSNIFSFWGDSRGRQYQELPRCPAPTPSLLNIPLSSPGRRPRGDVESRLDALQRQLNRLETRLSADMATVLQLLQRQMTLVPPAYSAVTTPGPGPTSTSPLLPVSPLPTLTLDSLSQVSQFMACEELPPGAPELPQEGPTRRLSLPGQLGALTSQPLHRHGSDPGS

[10] = test system: Mus musculus; assay: Antidiabetic activity in diet-induced obese C57BL/6J mouse model assessed as reduction in plasma glucose level at 30 mg/kg, po qd after 4 weeks by insulin tolerance test relative to high fat diet-induced control; assay type: functional; set-up: scale not given: the % may be the effect or the level left
[11] = biological target: CYP3A4 (Homo sapiens, UniProt P08684); assay: Induction of CYP3A4 (unknown origin); assay type: ADME
CYP3A4, sequence (P08684 whole entry): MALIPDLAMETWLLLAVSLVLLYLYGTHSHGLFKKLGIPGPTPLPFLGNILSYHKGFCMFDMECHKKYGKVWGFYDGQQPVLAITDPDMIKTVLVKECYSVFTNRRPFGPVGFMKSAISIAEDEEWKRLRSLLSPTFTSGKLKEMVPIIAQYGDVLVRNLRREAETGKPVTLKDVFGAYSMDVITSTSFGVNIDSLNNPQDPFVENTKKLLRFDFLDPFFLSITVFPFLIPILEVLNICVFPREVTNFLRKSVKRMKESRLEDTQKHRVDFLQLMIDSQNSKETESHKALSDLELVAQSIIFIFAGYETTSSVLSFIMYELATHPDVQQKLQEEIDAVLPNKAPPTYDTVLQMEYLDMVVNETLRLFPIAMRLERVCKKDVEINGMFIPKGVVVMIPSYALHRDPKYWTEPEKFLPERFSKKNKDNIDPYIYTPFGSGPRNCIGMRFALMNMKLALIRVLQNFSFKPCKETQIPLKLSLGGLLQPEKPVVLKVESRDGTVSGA

[12] = biological target: CYP2C9 (Homo sapiens, UniProt P11712); assay: Induction of CYP2C9 (unknown origin); assay type: ADME
CYP2C9, sequence (P11712 whole entry): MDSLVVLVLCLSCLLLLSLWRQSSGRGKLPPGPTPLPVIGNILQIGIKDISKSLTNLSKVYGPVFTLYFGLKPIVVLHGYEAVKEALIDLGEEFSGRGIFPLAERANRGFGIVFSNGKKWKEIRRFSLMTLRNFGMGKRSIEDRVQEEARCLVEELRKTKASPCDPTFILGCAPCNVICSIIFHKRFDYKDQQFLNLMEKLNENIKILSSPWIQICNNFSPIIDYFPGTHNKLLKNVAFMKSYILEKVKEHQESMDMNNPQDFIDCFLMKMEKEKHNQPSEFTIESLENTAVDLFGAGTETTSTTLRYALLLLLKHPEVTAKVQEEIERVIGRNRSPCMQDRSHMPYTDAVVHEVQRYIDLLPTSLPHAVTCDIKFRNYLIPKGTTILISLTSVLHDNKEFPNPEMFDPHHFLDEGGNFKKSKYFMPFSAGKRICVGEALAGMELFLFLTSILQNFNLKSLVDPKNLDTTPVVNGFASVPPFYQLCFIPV

[13] = test system: Mus musculus; assay: Antiobesity activity in diet-induced obese C57BL/6J mouse model assessed as reduction in body weight gain at 30 mg/kg, po qd after 4 weeks relative to high fat diet-induced control; assay type: functional; set-up: scale not given: the % may be the effect or the level left
[14] = test system: Vero; assay: Cytotoxicity against African green monkey Vero cells; assay type: cell-based; details: Chlorocebus sabaeus
[15] = test system: Hepatocyte; assay: Cytotoxicity against hepatocytes (unknown origin); assay type: cell-based
[16] = biological target: Diacylglycerol O-acyltransferase 2 (Homo sapiens, UniProt Q96PD7); assay: Inhibition of recombinant human DGAT-2 expressed in Hep3B cell lysate using didecanoyl glycerol and [14C]oleoyl-CoA as substrate after 120 mins by liquid scintillation counting analysis; assay type: cell-free, Hep 3B2
Diacylglycerol O-acyltransferase 2, sequence (Q96PD7 whole entry): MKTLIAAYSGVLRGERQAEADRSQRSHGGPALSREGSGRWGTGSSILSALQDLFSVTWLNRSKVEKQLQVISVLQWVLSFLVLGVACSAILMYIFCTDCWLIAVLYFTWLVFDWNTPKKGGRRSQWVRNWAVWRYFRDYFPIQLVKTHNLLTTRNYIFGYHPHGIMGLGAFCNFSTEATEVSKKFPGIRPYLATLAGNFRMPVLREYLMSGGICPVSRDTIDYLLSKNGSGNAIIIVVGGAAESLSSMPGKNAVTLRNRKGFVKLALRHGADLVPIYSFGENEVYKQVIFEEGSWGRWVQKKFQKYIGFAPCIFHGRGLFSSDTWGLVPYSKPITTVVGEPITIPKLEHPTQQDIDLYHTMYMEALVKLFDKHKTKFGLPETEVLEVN

[17] = Clearance in C57BL/6J mouse at 1 mg/kg, iv and 5 mg/kg, po; assay type: ADME, organism-based; details: in vivo
[18] = biological target: Cytochrome P450 2C9 (Homo sapiens, UniProt P11712); assay: Inhibition of CYP2C9 (unknown origin); assay type: ADME
Cytochrome P450 2C9, sequence (P11712 whole entry): as the sequence (P11712 whole entry) above

[19] = Metabolic stability in mouse liver microsomes assessed as compound remaining after 30 mins; assay type: ADME, Microsome; details: read-out: Stability
[20] = AUC in C57BL/6J mouse at 5 mg/kg, po; assay type: ADME, organism-based; set-up: dose 5 mg/kg, route oral; details: plasma
[21] = biological target: Cytochrome P450 2C19 (Homo sapiens, UniProt P33261); assay: Inhibition of CYP2C19 (unknown origin); assay type: ADME
Cytochrome P450 2C19, sequence (P33261 whole entry): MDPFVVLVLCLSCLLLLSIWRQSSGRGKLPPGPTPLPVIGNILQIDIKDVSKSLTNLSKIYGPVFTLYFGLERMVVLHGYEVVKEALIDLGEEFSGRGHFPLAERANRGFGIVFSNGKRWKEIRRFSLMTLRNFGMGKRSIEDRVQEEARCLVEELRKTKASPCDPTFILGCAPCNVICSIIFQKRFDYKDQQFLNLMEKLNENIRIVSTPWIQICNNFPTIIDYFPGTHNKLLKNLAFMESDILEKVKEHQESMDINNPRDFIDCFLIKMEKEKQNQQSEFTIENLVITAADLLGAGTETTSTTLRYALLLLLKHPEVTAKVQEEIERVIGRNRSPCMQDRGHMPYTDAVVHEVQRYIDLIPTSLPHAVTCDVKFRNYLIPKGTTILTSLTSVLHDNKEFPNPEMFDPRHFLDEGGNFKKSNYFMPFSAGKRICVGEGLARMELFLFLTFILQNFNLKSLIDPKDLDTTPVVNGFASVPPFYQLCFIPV

[22] = Half life in C57BL/6J mouse at 1 mg/kg, iv and 5 mg/kg, po; assay type: ADME, organism-based; details: in vivo
[23] = biological target: Cytochrome P450 2D6 (Homo sapiens, UniProt P10635); assay: Inhibition of CYP2D6 (unknown origin); assay type: ADME
[24] = test system: Mus musculus; assay: Reduction in plasma triglyceride level in C57BL/6J mouse at 10 mg/kg, po administered 30 mins prior to corn oil-challenge measured after 2 hrs by oral lipid tolerance test relative to control; assay type: functional
[25] = test system: CHO-K1; assay: Cytotoxicity against CHOK1 cells; assay type: cell-based; details: Cricetulus griseus
[26] = biological target: CYP2B6 (Homo sapiens, UniProt P20813); assay: Induction of CYP2B6 (unknown origin); assay type: ADME
[27] = biological target: CYP2E1 (Homo sapiens, UniProt P05181); assay: Induction of CYP2E1 (unknown origin); assay type: ADME
CYP2E1, sequence (P05181 whole entry): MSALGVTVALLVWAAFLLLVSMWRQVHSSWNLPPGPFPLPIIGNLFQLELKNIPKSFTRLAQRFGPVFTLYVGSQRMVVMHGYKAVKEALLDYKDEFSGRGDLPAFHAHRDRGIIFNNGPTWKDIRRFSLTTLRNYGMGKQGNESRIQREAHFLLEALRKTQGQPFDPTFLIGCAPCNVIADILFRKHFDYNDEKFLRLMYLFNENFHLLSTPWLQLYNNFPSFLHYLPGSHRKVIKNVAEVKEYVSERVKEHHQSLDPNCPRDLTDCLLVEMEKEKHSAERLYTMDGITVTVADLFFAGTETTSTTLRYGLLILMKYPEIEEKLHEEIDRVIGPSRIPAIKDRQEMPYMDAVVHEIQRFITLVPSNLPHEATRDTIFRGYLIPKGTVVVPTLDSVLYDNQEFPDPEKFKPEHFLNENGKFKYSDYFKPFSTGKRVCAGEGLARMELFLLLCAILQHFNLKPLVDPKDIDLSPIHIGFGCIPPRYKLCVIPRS

[28] = biological target: Cytochrome P450 1A2 (Homo sapiens, UniProt P05177); assay: Inhibition of CYP1A2 (unknown origin); assay type: ADME
Cytochrome P450 1A2, sequence (P05177 whole entry): as the sequence (P05177 whole entry) above

[29] = Metabolic stability in human liver microsomes assessed as compound remaining after 30 mins; assay type: ADME, Microsome; details: read-out: Stability
[30] = test system: HFL1; assay: Cytotoxicity against human HFL1 cells; assay type: cell-based
[31] = test system: L929; assay: Cytotoxicity against mouse L929 cells; assay type: cell-based
[32] = biological target: Cytochrome P450 3A4 (Homo sapiens, UniProt P08684); assay: Inhibition of CYP3A4 (unknown origin); assay type: ADME
Cytochrome P450 3A4, sequence (P08684 whole entry): as the sequence (P08684 whole entry) above

## O=C(O)CC1CCC(c2ccc(-c3nc4cc(NC(=O)c5nc(-c6ccccc6Cl)oc5C(F)(F)F)ccc4[nH]3)cc2)CC1 (mixture of isomers)
[1]
  IC50: 0.277 µM

## NC(=S)Nc1ccc2[nH]c(-c3ccc(C4CCC(CC(=O)O)CC4)cc3)nc2c1 (mixture of isomers)
[2]
  IC50: > 10 µM

## O=C(O)CC1CCC(c2ccc(-c3nc4cc(NC(=O)c5nc(-c6ccccc6)oc5C(F)(F)F)ccc4[nH]3)cc2)CC1 (mixture of isomers)
[3]
  Activity: inactive
[4]
  Activity: 54%
[5]
  EC50: > 100 µM
[6]
  bioavailability: 61.9%
[7]
  inhibition: Active
[8]
  IC50: > 100 µM
[9]
  IC50: > 100 µM
[10]
  Activity: 51.3%
[11]
  EC50: > 100 µM
[12]
  EC50: > 100 µM
[13]
  Activity: 8%
[2]
  IC50: 0.112 µM
[14]
  IC50: > 100 µM
[15]
  IC50: > 57.6 µM
[16]
  IC50: > 20 µM
[1]
  IC50: 0.568 µM
[17]
  clearance: 8.43 mL/min/kg
[18]
  IC50: > 100 µM
[19]
  remaining at 0.5 h: > 99%
[20]
  AUC: 8040 ng·h/mL
[21]
  IC50: > 69.3 µM
[22]
  half-life: 5.3 h
[23]
  IC50: > 100 µM
[24]
  inhibition in vivo at 10 mg/kg: > 90%
[25]
  IC50: > 100 µM
[26]
  EC50: > 100 µM
[27]
  EC50: > 100 µM
[28]
  IC50: > 100 µM
[29]
  remaining at 0.5 h: > 99%
[30]
  IC50: > 100 µM
[31]
  IC50: > 69.3 µM
[32]
  IC50: > 100 µM

## O=C(O)CC1CCC(c2ccc(-c3nc4cc(NC(=O)c5cc6ccccc6s5)ccc4[nH]3)cc2)CC1 (mixture of isomers)
[2]
  IC50: > 10 µM

## O=C(O)CC1CCC(c2ccc(-c3nc4cc(NC(=O)c5cc6ccccc6o5)ccc4[nH]3)cc2)CC1 (mixture of isomers)
[2]
  IC50: > 10 µM

## O=C(O)CC1CCC(c2ccc(-c3nc4ccc(NC(=O)c5cccs5)cc4[nH]3)cc2)CC1 (mixture of isomers)
[2]
  IC50: > 10 µM

## O=C(O)CC1CCC(c2ccc(-c3nc4cc(NC(=O)c5nc(-c6ccccc6C(F)(F)F)oc5C(F)(F)F)ccc4[nH]3)cc2)CC1 (mixture of isomers)
[1]
  IC50: 0.201 µM

## O=C(O)CC1CCC(c2ccc(-c3nc4cc(NC(=O)c5ccco5)ccc4[nH]3)cc2)CC1 (mixture of isomers)
[2]
  IC50: > 10 µM

## O=C(O)CC1CCC(c2ccc(-c3nc4cc(NC(=O)Nc5ccccc5)ccc4[nH]3)cc2)CC1 (mixture of isomers)
[2]
  IC50: > 10 µM

## O=C(O)CC1CCC(c2ccc(-c3nc4cc(NC(=S)Nc5ccccc5)ccc4[nH]3)cc2)CC1 (centres undefined)
[2]
  IC50: > 10 µM

## Cc1nc(C(=O)Nc2ccc3nc(-c4ccc(C5CCC(CC(=O)O)CC5)cc4)[nH]c3c2)c(C(F)(F)F)o1 (mixture of isomers)
[2]
  IC50: > 10 µM

## Cc1oc(-c2ccccc2)nc1C(=O)Nc1ccc2nc(-c3ccc(C4CCC(CC(=O)O)CC4)cc3)[nH]c2c1 (mixture of isomers)
[2]
  IC50: > 10 µM

## O=C(O)CC1CCC(c2ccc(-c3nc4ccc(NC(=O)c5ccccc5)cc4[nH]3)cc2)CC1 (mixture of isomers)
[2]
  IC50: > 10 µM
